Measurements from the supplement of paper PMC10627819.

What was measured:
[1] = tested on: S. aureus Newman; experiment: Bliss interaction score (quartile over a dose matrix) (fitness difference); higher = more antagonism (negative = synergy)
Summary of the method: (§1)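 The Bliss score takes observed fitness and subtracts the expected fitness, calculated as a product of single-drug fitness values. Those single-drug values were inferred from the combination data. Fitness is OD595 at entry into stationary phase divided by the plate's robust no-drug mean, capped at 1, and the score is summarised by quartiles across technical, biological and donor/recipient replicates.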

[2] = tested on: S. aureus DSM 20231; experiment: as above
Summary of the method: as §1

[3] = tested on: B. subtilis 168; experiment: as above
Summary of the method: as §1

[4] = tested on: S. pneumoniae D39V; experiment: as above
Summary of the method: as §1

[5] = tested on: S. aureus Newman; experiment: fitness (endpoint OD595 vs no drug) (fraction); higher = more growth
Summary of the method: (§2)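 Each well of a 384-well plate received 30 µl of culture at OD595 0.01, or 55 µl for S. pneumoniae. TSB, LB Lennox or CY served as media at 37 °C. OD595 was taken every 30 min for 14 h and corrected by subtracting the first reading. Fitness is the optical density at stationary-phase entry divided by the robust mean of no-drug controls, capped at 1.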

[6] = tested on: S. aureus DSM 20231; experiment: as above
Summary of the method: as §2

[7] = tested on: B. subtilis 168; experiment: as above
Summary of the method: as §2

[8] = tested on: S. pneumoniae D39V; experiment: as above
Summary of the method: as §2
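Wherever Bliss interaction score (quartile over a dose matrix) is given: first quartile when negative (synergy) and third quartile when positive (antagonism).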

CCC[C@@H]1C[C@@H](C(=O)N[C@@H]([C@H]2O[C@H](SC)[C@H](O)[C@@H](O)[C@H]2O)[C@H](C)Cl)N(C)C1 [Clindamycin] + COc1ccc(C[C@H](N)C(=O)N[C@H]2[C@@H](O)[C@H](n3cnc4c(N(C)C)ncnc43)O[C@@H]2CO)cc1 [Puromycin]
Conditions | Bliss interaction score
[1] | -0.0646
[2] | -0.0327
[3] | 0.0463
[4] | -0.123

Conditions | fitness
[5], first compound 0.0312 µg/mL, partner 0.39 µg/mL | 0.741
[5], first compound 0.0312 µg/mL, partner 0.78 µg/mL | 0.717
[5], first compound 0.0312 µg/mL, partner 1.56 µg/mL | 0.713
[5], first compound 0.0625 µg/mL, partner 0.39 µg/mL | 0.395
[5], first compound 0.0625 µg/mL, partner 0.78 µg/mL | 0.412
[5], first compound 0.0625 µg/mL, partner 1.56 µg/mL | 0.326
[5], first compound 0.125 µg/mL, partner 0.39 µg/mL | 0.101
[5], first compound 0.125 µg/mL, partner 0.78 µg/mL | 0.115
[5], first compound 0.125 µg/mL, partner 1.56 µg/mL | 0.13
[6], first compound 0.0625 µg/mL, partner 1.56 µg/mL | 0.179
[6], first compound 0.125 µg/mL, partner 0.39 µg/mL | 0.0343
[6], first compound 0.125 µg/mL, partner 0.78 µg/mL | 0.0367
[6], first compound 0.125 µg/mL, partner 1.56 µg/mL | 0.0565
[7], first compound 0.0625 µg/mL, partner 0.39 µg/mL | 0.534
[7], first compound 0.0625 µg/mL, partner 0.78 µg/mL | 0.52
[7], first compound 0.0625 µg/mL, partner 1.56 µg/mL | 0.564
[7], first compound 0.125 µg/mL, partner 0.39 µg/mL | 0.378
[7], first compound 0.125 µg/mL, partner 0.78 µg/mL | 0.355
[7], first compound 0.125 µg/mL, partner 1.56 µg/mL | 0.366
[7], first compound 0.25 µg/mL, partner 0.39 µg/mL | 0.347
[7], first compound 0.25 µg/mL, partner 0.78 µg/mL | 0.335
[7], first compound 0.25 µg/mL, partner 1.56 µg/mL | 0.344
[8], first compound 0.0125 µg/mL, partner 1 µg/mL | 0.766
[8], first compound 0.0125 µg/mL, partner 2 µg/mL | 0.712
[8], first compound 0.0125 µg/mL, partner 4 µg/mL | 0.473
[8], first compound 0.025 µg/mL, partner 1 µg/mL | 0.533
[8], first compound 0.025 µg/mL, partner 2 µg/mL | 0.475
[8], first compound 0.025 µg/mL, partner 4 µg/mL | 0.33
[8], first compound 0.05 µg/mL, partner 1 µg/mL | 0.261
[8], first compound 0.05 µg/mL, partner 2 µg/mL | 0.192
[8], first compound 0.05 µg/mL, partner 4 µg/mL | 0.11

one replicate
Conditions | fitness
[6], first compound 0.0312 µg/mL, partner 3.12 µg/mL | 0.487
[6], first compound 0.0312 µg/mL, partner 6.24 µg/mL | 0.14
[6], first compound 0.0625 µg/mL, partner 3.12 µg/mL | 0.212
[6], first compound 0.0625 µg/mL, partner 6.24 µg/mL | 0.0867
[6], first compound 0.125 µg/mL, partner 3.12 µg/mL | 0.0522
[6], first compound 0.125 µg/mL, partner 6.24 µg/mL | 0.0492
[7], first compound 0.0039 µg/mL, partner 0.39 µg/mL | 0.956
[7], first compound 0.0039 µg/mL, partner 0.78 µg/mL | 0.946
[7], first compound 0.0039 µg/mL, partner 1.56 µg/mL | ≥ 1
[7], first compound 0.0078 µg/mL, partner 0.39 µg/mL | 0.853
[7], first compound 0.0078 µg/mL, partner 0.78 µg/mL | 0.876
[7], first compound 0.0078 µg/mL, partner 1.56 µg/mL | 0.92
[7], first compound 0.0156 µg/mL, partner 0.39 µg/mL | 0.826
[7], first compound 0.0156 µg/mL, partner 0.78 µg/mL | 0.907
[7], first compound 0.0156 µg/mL, partner 1.56 µg/mL | 0.894
[8], first compound 0.015 µg/mL, partner 1 µg/mL | 0.746
[8], first compound 0.015 µg/mL, partner 2 µg/mL | 0.84
[8], first compound 0.015 µg/mL, partner 4 µg/mL | 0.583
[8], first compound 0.03 µg/mL, partner 1 µg/mL | 0.591
[8], first compound 0.03 µg/mL, partner 2 µg/mL | 0.625
[8], first compound 0.03 µg/mL, partner 4 µg/mL | 0.218
[8], first compound 0.06 µg/mL, partner 1 µg/mL | 0.177
[8], first compound 0.06 µg/mL, partner 2 µg/mL | 0.102
[8], first compound 0.06 µg/mL, partner 4 µg/mL | 0.114
